In test [1] the test system is TC71 Ewing sarcoma viability, CellTiter-Glo ATP, 72 h. The test can be described thus: killing of EWS/Fli1-dependent TC71 cells, confirmation, cell-based, luminescence, retest at dose, dry powder (AID 743477).
Assay in test [2]: as above
To be noted: TC71 Ewing sarcoma viability, CellTiter-Glo ATP, 72 h. Background: ATP-based viability assays read luminescence as a measure of living cells.

The structures appear in SMILES notation. Where “and” joins values, the source holds several entries; their conditions need not be identical. Equal values may be shown once. Calls of active or inactive are those of the source.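 The calls were made as follows: active = fitted curve drops to -35% activity change at a dose no higher than twice the top valid tested dose; inconclusive = no clear call, values can overlap the other calls; inactive = the rest, including effects opposite to the expected drop.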

`COc1ccc(OC)c(-c2nnc3n2N=C(c2ccc(OC)c(OC)c2)CS3)c1`: the AC35 in test [1] is 27.6 nM and 22.6 nM.
With `O=C(Nc1c(Cl)cncc1Cl)c1ccc(OC(F)F)c(OCC2CC2)c1`, in test [2] (at 26 µM (top of the series)), the activity change, negative = cytotoxicity was -7.16% (inactive).
Still for that read-out and setting: next, `N#CC1=C(N)Oc2cc(N)ccc2C1c1ccc(Cl)cc1` (stereo not drawn): -10.5% (inactive).
On to `N#CC1=C(N)Oc2cc(OC(=O)c3ccccc3)ccc2C1c1cccc(Br)c1` (stereo not drawn), for which, in test [1], the AC35 is 3080 nM.
Take `C[C@]1(c2nc3c(C(N)=O)cccc3[nH]2)CCCN1`: the activity change, negative = cytotoxicity in test [2] (at 26 µM (top of the series)) is -3.66% (inactive).
As for `CCOC(=O)CCNc1cc(N2CCc3ccccc3CC2)nc(-c2ccccn2)n1`, in test [1], the AC35 is 2590 nM.
On the same count and under the same terms, next, `N#CC1=C(N)Oc2cc(N)ccc2C1c1ccccc1` (stereo not drawn): 12800 nM; `COc1ccc(S(=O)(=O)N(C(C)=O)c2ccc(OC(C)=O)c3ccccc23)cc1[N+](=O)[O-]`: 4460 nM.
As for `N#CC1=C(N)Oc2cc(N)ccc2C12C(=O)Nc1ccc(Br)cc12` (stereo not drawn), the activity change, negative = cytotoxicity in test [2] (at 26 µM (top of the series)) was -13% (inactive).
For `COc1ccc(C2=Nn3c(nnc3-c3ccccc3Cl)SC2)cc1OC`, the AC35 in test [1] is 427 nM.
Regarding `COc1ccc(C2C(C#N)=C(N)Oc3cc(N)ccc32)cc1` (stereo not drawn), the activity change, negative = cytotoxicity in test [2] (at 26 µM (top of the series)) was -6.57% (inactive).
Turning to `N#CC1=C(N)Oc2cc(N)ccc2C1c1ccccc1Cl` (stereo not drawn), the AC35 in test [1] is 10600 nM.
In the case of `COc1ccc(S(=O)(=O)N2CC[C@@H]3[C@@H](CO)N(C)c4ccc(-c5ccc(F)cc5)cc4[C@@H]32)cc1`, the AC35 in test [1] was 3410 nM.
Same read-out and setting: next, `N#Cc1ccc(-c2ccc3c(c2)[C@H]2[C@H](CCN2S(=O)(=O)c2ccccc2F)[C@@H](CO)N3)cc1`: 11000 nM; `O=C(c1cc(Cc2n[nH]c(=O)c3ccccc23)ccc1F)N1CCN(C(=O)C2CC2)CC1`: 2300 nM; `COc1cc(C2C(C#N)=C(N)Oc3cc(N(C)C)ccc32)cc2c1OCO2` (stereo not drawn): 132 nM.
Consider `COc1ccc(-c2cc(NC=O)c3ncc(-c4ccc(OC)c(OC)c4)n3c2)cc1`, for which the AC35 in test [1] is 563 nM.
For `COc1ccc(-c2cc(NC(C)=O)c3ncc(-c4ccc(OC)c(OC)c4)n3c2)cc1`, the activity change, negative = cytotoxicity in test [2] (at 26 µM (top of the series)) is -8.1% (inactive).
Still for that read-out and setting: for `CN1c2ccc(-c3ccc(C#N)cc3)cc2[C@H]2[C@H](CCN2S(=O)(=O)c2ccc(F)cc2)[C@H]1CO` the value was -15.7% (inactive); for `CN(C(=O)CCCOc1ccc2[nH]c(=O)ccc2c1)C1CCCCC1`, -11% (inactive).
Take `C=C([C@@H](O)[C@@H](C)O)[C@@H](OC)[C@]1(C)Cc2cc3cc(O[C@H]4CC(OC5CC(O)C(O)C(C)O5)C(O)C(C)O4)cc(O)c3c(O)c2C(=O)[C@H]1OC1CC(OC2CC(OC3CC(C)(O)C(O)C(C)O3)C(O)C(C)O2)C(O)C(C)O1` (stereo partly drawn): in test [1], the AC35 was 55.8 nM.
In the case of `COC(=O)c1ccc(C2C(C#N)=C(N)Oc3cc(N)ccc32)cc1` (stereo not drawn), the activity change, negative = cytotoxicity in test [2] (at 26 µM (top of the series)) is -13.5% (inactive).
For `CN(C)c1ccc2c(c1)OC(N)=C(C#N)C2c1cccc(F)c1` (stereo not drawn), the AC35 in test [1] is 21.4 nM.
Turning to `N#CC1=C(N)Oc2cc(O)ccc2C1c1cccc(Br)c1` (stereo not drawn), the AC35 in test [1] was 2720 nM.
Still for that read-out and setting: next, `COc1ccccc1S(=O)(=O)N1CC[C@@H]2[C@@H](CO)Nc3ccc(-c4ccc(C#N)cc4)cc3[C@@H]21`: 10500 nM; `Cn1cc(-c2ccncc2)c(-c2ccc(OCc3ccc4ccccc4n3)cc2)n1`: 20000 nM; `N#CC1=C(N)Oc2cc(N)ccc2C1c1cccc(F)c1` (stereo not drawn): 1770 nM.
The same measure, in the same setting: for `N#CC1=C(N)Oc2ccc3ccccc3c2C1c1cccc(F)c1` (stereo not drawn) the value was 677 nM; for `COc1ccc(C(=O)CC2(O)C(=O)Nc3c(Cl)ccc(Cl)c32)cc1` (stereo not drawn), 2930 nM; for `Cc1ccccc1C1C(C#N)=C(N)Oc2cc(N)ccc21` (stereo not drawn), 13200 nM.
For the molecule `Cc1nc(Nc2ncc(C(=O)Nc3c(C)cccc3Cl)s2)cc(N2CCN(CCO)CC2)n1`, the AC35 in test [1] is 26800 nM.
As to `COc1ccc(S(=O)(=O)N2CC[C@@H]3[C@H](CO)Nc4ccc(-c5ccc(C#N)cc5)cc4[C@@H]32)cc1`, in test [1], the AC35 was 7920 nM.
In the case of `COc1ccc(C2=Nn3c(nnc3-c3ccccc3)SC2)cc1OC`, the activity change, negative = cytotoxicity in test [2] (at 26 µM (top of the series)) was -10.7% (inactive).
As for `CC(C)(O)CCc1ccc(O)c2c(=O)c3c(O)c4c(cc3oc12)O[C@H]1OC=C[C@@]41O`, the AC35 in test [1] is < 26 nM.
With `C[C@@]1(C(=O)Nc2ccc(F)nc2)CCCN1c1nc(Nc2cc(C3CC3)[nH]n2)c2cccn2n1`, the AC35 in test [1] was 458 nM.
In the case of `O=P1(NCCCl)OCCCN1CCCl` (stereo not drawn), the activity change, negative = cytotoxicity in test [2] (at 50 µM (top of the series)) was 3.6% (inactive).
As for `COc1ccccc1-c1nnc2n1N=C(c1ccc(O)c(O)c1)CS2`, in test [1], the AC35 is 1320 nM.
For `CCC(C)C(=O)OC1CC(C)C=C2C=CC(C)C(CCC(O)CC(O)CC(=O)O)C21` (stereo not drawn), in test [1], the AC35 was 45300 nM.

Values taken from PubChem BioAssay AID743477 (Broad Institute, 2014).
